System: CN0375-F725-PDC KRAS spheroid viability
Experiment: Anticancer human tumor CN0375-F725-PDC patient-derived colon carcinoma cell line growth inhibition [KRAS2]
Details: spheroids with HUVEC and MSC; for IC50: curve of first compound; for viability, T/C: stronger effect = lower value
How it was run: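 Combination screen of spheroid viability in tumor-cell co-cultures with endothelial (HUVEC) and mesenchymal stem cell stroma. Each agent was tested in half-log dilutions, topping at clinical Cmax or at 10 microM without a known Cmax.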
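Also: spheroids exposed to agents for 7 days.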

## CC(=O)OC12COC1CC(O)C1(C)C(=O)C(O)C3=C(C)C(OC(=O)C(O)C(NC(=O)OC(C)(C)C)c4ccccc4)CC(O)(C(OC(=O)c4ccccc4)C21)C3(C)C (stereo not given) + COc1cc2nc(C)nc(NC(C)c3cc(N)cc(C(F)(F)F)c3)c2cc1OC1CCOC1
Second compound 0.1 µM
  IC50: > 3.16 µM
Second compound 0.316 µM
  IC50: > 3.16 µM
Second compound 1 µM
  IC50: > 3.16 µM
Second compound 3.16 µM
  IC50: > 3.16 µM
Second compound 10 µM
  IC50: 1.08 µM
Second compound 0.1 µM, first compound 0.01 µM
  viability, T/C: 99.6%
Second compound 0.1 µM, first compound 0.0316 µM
  viability, T/C: 96.2%
Second compound 0.1 µM, first compound 0.1 µM
  viability, T/C: 87.8%
Second compound 0.1 µM, first compound 0.316 µM
  viability, T/C: 84.4%
Second compound 0.1 µM, first compound 1 µM
  viability, T/C: 80.5%
Second compound 0.1 µM, first compound 3.16 µM
  viability, T/C: 72.7%
Second compound 0.316 µM, first compound 0.01 µM
  viability, T/C: 91%
Second compound 0.316 µM, first compound 0.0316 µM
  viability, T/C: 91.8%
Second compound 0.316 µM, first compound 0.1 µM
  viability, T/C: 83.6%
Second compound 0.316 µM, first compound 0.316 µM
  viability, T/C: 80%
Second compound 0.316 µM, first compound 1 µM
  viability, T/C: 74.9%
Second compound 0.316 µM, first compound 3.16 µM
  viability, T/C: 69.5%
Second compound 1 µM, first compound 0.01 µM
  viability, T/C: 89.8%
Second compound 1 µM, first compound 0.0316 µM
  viability, T/C: 101%
Second compound 1 µM, first compound 0.1 µM
  viability, T/C: 87.8%
Second compound 1 µM, first compound 0.316 µM
  viability, T/C: 82.7%
Second compound 1 µM, first compound 1 µM
  viability, T/C: 80.4%
Second compound 1 µM, first compound 3.16 µM
  viability, T/C: 71.4%
Second compound 3.16 µM, first compound 0.01 µM
  viability, T/C: 77.7%
Second compound 3.16 µM, first compound 0.0316 µM
  viability, T/C: 70.6%
Second compound 3.16 µM, first compound 0.1 µM
  viability, T/C: 75.1%
Second compound 3.16 µM, first compound 0.316 µM
  viability, T/C: 63.4%
Second compound 3.16 µM, first compound 1 µM
  viability, T/C: 71.1%
Second compound 3.16 µM, first compound 3.16 µM
  viability, T/C: 63.6%
Second compound 10 µM, first compound 0.01 µM
  viability, T/C: 68.3%
Second compound 10 µM, first compound 0.0316 µM
  viability, T/C: 65.6%
Second compound 10 µM, first compound 0.1 µM
  viability, T/C: 64.6%
Second compound 10 µM, first compound 0.316 µM
  viability, T/C: 52.6%
Second compound 10 µM, first compound 1 µM
  viability, T/C: 54.9%
Second compound 10 µM, first compound 3.16 µM
  viability, T/C: 39.9%

Reference: PubChem BioAssay AID1963860 (Molecular Pharmacology Branch, DTP, NCI, 2024)
